The subject of one data set is Chikungunya virus. Nature of the data set: Antiviral activity against CHIKV S27 infected in human Huh-7 cells at MOI of 0.25 incubated for 2 days and measured by ATPLite assay. The conditions noted are these: S27, Huh-7, 48 h. It counts as functional, organism-based. In general terms: In ATP-based viability assays light output follows the ATP content of the culture.

The nature of data set [1]: Cytotoxicity against human Huh-7 cells measured after 2 days by ATPLite-based viability assay. It is filed as toxicity, cell-based. The conditions noted are these: time 2 day.
For the next data set, the system named is Hepatitis C virus. The data set can be described thus: Antiviral activity against HCV genotype 1b infected in human Huh7 cells incubated for 3 days and measured by luciferase reporter gene assay. It is filed as functional, organism-based, Hepacivirus hominis. The conditions noted are these: subtype 1b, Huh-7, 72 h. On the technique in general: A reporter such as luciferase makes a cellular process visible.

The next data set concerns dengue virus type 2. Nature of the data set: Antiviral activity against DENV2 16681 infected in human Huh-7 cells assessed as reduction in viral replication at MOI of 1 to 5 incubated for 3 days. It counts as functional, organism-based. The conditions noted are these: Dengue virus, 16681, Huh-7, 72 h.
The next data set has as its system Sindbis virus. The data set can be described thus: Antiviral activity against SINV AR339 infected in human Huh-7 cells measured by cytopathic effect inhibition assay. It counts as functional, organism-based. The conditions noted are these: AR339, Huh-7. A general note: Damage to the host cells serves as the signal in cytopathic effect assays.
Data set [2] can be described thus: Stability of compound in simulated gastric fluid incubated for 6 hrs at 1 uM and assessed as compound remaining after 6 hrs by LC-MS/MS analysis. It counts as ADME. The conditions noted are these: read-out: Stability.
A short description of data set [3]: Tmax in male C57BL/6 mouse at 50 mg/kg, sc measured by LC-MS/MS analysis. It is filed as ADME, organism-based. The conditions noted are these: in vivo.
The nature of data set [4]: Stability of compound in simulated gastric fluid incubated for 6 hrs and assessed as half-life at 1 uM by LC-MS/MS analysis. It counts as ADME.
Data set [5] is described as follows: AUClast in male C57BL/6 mouse at 50 mg/kg, po measured by LC-MS/MS analysis. The conditions noted are these: in vivo. It is filed as ADME, organism-based.
Data set [6] is described as follows: AUClast in male C57BL/6 mouse at 50 mg/kg, sc measured by LC-MS/MS analysis. It counts as ADME, organism-based. The conditions noted are these: in vivo.
The nature of data set [7]: Tmax in male C57BL/6 mouse at 50 mg/kg, po measured by LC-MS/MS analysis. It counts as ADME, organism-based. The conditions noted are these: in vivo.
Data set [8] in a line: Cmax in male C57BL/6 mouse at 50 mg/kg, po measured by LC-MS/MS analysis. It counts as ADME, organism-based. Also noted: dose 50 mg/kg, route po. The conditions noted are these: in vivo.
Data set [9] can be described thus: Tlast in male C57BL/6 mouse at 50 mg/kg, sc measured by LC-MS/MS analysis. The conditions noted are these: in vivo. It is filed as ADME, organism-based.
Data set [10] is described as follows: Stability of compound in fasted state simulated intestinal fluid incubated for 6 hrs and assessed as half-life at 1 uM by LC-MS/MS analysis. It counts as ADME.
Data set [11] can be described thus: Stability of compound in mouse plasma assessed as half-life incubated for 24 hrs and assessed as half-life at 1 uM by LC-MS/MS analysis. It counts as ADME, cell-free.
A short description of data set [12]: Cmax in male C57BL/6 mouse at 50 mg/kg, sc measured by LC-MS/MS analysis. It counts as ADME, organism-based. Also noted: dose 50 mg/kg, route sc. The conditions noted are these: in vivo.
Data set [13] in a line: Metabolic stability in human liver microsomes assessed as intrinsic clearance preincubated for 5 mins followed by addition of NADPH and assessed as intrinsic clearance by LC-MS/MS analysis. It counts as ADME, Microsome. The conditions noted are these: read-out: CLH.
Data set [14] in a line: Metabolic stability in mouse liver microsomes preincubated for 5 mins followed by addition of NADPH and assessed as intrinsic clearance by LC-MS/MS analysis. It is filed as ADME, Microsome. The conditions noted are these: read-out: CLH.
Data set [15] in a line: Stability of compound in human plasma assessed as half-life incubated for 24 hrs and assessed as half-life at 1 uM by LC-MS/MS analysis. It is filed as ADME, cell-free.
Data set [16] in a line: Tlast in male C57BL/6 mouse at 50 mg/kg, po measured by LC-MS/MS analysis. It counts as ADME, organism-based. The conditions noted are these: in vivo.

Some results are limits rather than exact numbers.

Usually EC50 stands for the midpoint of the concentration-response curve. As a reminder, the CC50 is the concentration that lowers cell viability or growth by half. A low value points to greater toxicity to the cells. As usually defined, the Tmax is the time from dosing to the highest level. The half-life is the time in which the quantity being followed falls by half.

For `CC(C)OC(=O)[C@H](C)N[P@@](=O)(OC[C@@]1(F)O[C@@H](n2ccc(=O)[nH]c2=O)[C@@]2(CCS2)[C@@H]1O)Oc1ccccc1`, the concentration giving a half-maximal response (EC50) in the data set with Chikungunya virus was 3.18 µM; in the data set with Hepatitis C virus, 2.2 µM; in the data set on dengue virus type 2, 29.3 µM; with Sindbis virus, 5.82 µM. The molecule also came in with a CC50 at 48 h in [1] of over 100 µM.
For the molecule `CC(C)OC(=O)[C@H](C)NP(=O)(OC[C@H]1O[C@@H](n2ccc(=O)[nH]c2=O)[C@@]2(CCO2)[C@@H]1O)Oc1ccccc1` (stereo partly specified), the EC50 with Chikungunya virus is over 100 µM; in the data set on Hepatitis C virus, 21.4 µM; with dengue virus type 2 it was over 50 µM. In [1], this molecule yielded a 50% cytotoxic concentration (CC50) at 48 h of over 100 µM.
In the case of `CC(C)OC(=O)[C@H](C)NP(=O)(OC[C@@]1(F)O[C@@H](n2ccc(=O)[nH]c2=O)[C@@]2(CCO2)[C@@H]1O)Oc1ccccc1` (stereo partly specified), the EC50 in the data set on Chikungunya virus, in the data set on Hepatitis C virus and with dengue virus type 2 was over 100 µM throughout. Moreover, the CC50 at 48 h in data set [1] was over 100 µM.
Consider `CC(C)OC(=O)[C@H](C)N[P@](=O)(OC[C@@]1(F)O[C@@H](n2ccc(=O)[nH]c2=O)[C@@]2(CCS2)[C@@H]1O)Oc1ccccc1`, for which the concentration giving a half-maximal response (EC50) in the data set with Chikungunya virus was determined as 4.6 µM; in the data set with Hepatitis C virus it was 2.1 µM; in the data set on dengue virus type 2 it was 42 µM; in the data set on Sindbis virus it was 5.93 µM. Besides, in data set [1], the CC50 at 48 h was over 100 µM.
For `CCCCOC(=O)C(C)NP(=O)(OC[C@@]1(F)O[C@@H](n2ccc(=O)[nH]c2=O)[C@@]2(CCS2)[C@@H]1O)Oc1ccccc1` (single isomer, unassigned) the same measures were 2.87 µM, 1.92 µM, 29 µM, 4.64 µM and over 100 µM.
For `CC(C)OC(=O)[C@H](C)NP(=O)(OC[C@@]1(F)O[C@@H](n2ccc(=O)[nH]c2=O)[C@@]2(CCS2)[C@@H]1O)Oc1ccccc1` (stereo partly specified), the remaining at 6 h, 1 µM in data set [2] was 93%. Further, the Tmax in data set [3] and in data set [7] was 2 h each time. Besides, the half-life at 1 µM in [4] was over 6 h; in [10], 0.2 h; in [11], under 0.4 h; in data set [15] it was over 30 h. Also, the results for the AUClast in data set [5] and in data set [6] were 3050 ng·h/g and 10000 ng·h/g, respectively. For the same molecule, the EC50 in the data set on Chikungunya virus came out at 3.25 µM; in the data set on Hepatitis C virus it was 2.58 µM; in the data set on dengue virus type 2, 28.3 µM; in the data set with Sindbis virus, 6.19 µM. In addition, the Cmax in data set [8] came out at 637 ng/mg; in data set [12], 2060 ng/mg. The Tlast in data set [9] and in data set [16] was 7 h in each case. In addition, the CC50 at 48 h in data set [1] is over 100 µM. Also, the microsomal CLint in data set [13] and in data set [14] was over 347 µL/min/mg in each case.
As to `CC(C)OC(=O)[C@H](C)NP(=O)(OC[C@H]1O[C@@H](n2ccc(=O)[nH]c2=O)[C@@]2(CCS2)[C@@H]1O)Oc1ccccc1` (stereo partly specified), the EC50 amounted to 22.4 µM in the data set with Chikungunya virus, 1.17 µM with Hepatitis C virus and 26.1 µM in the data set with dengue virus type 2. Besides, the CC50 at 48 h in data set [1] was over 100 µM.
Take `CC(C)OC(=O)C(C)NP(=O)(OC[C@@]1(N=[N+]=[N-])O[C@@H](n2ccc(=O)[nH]c2=O)[C@@]2(CCS2)[C@@H]1O)Oc1ccccc1` (single isomer, unassigned): the figures for the EC50 in the data set with Chikungunya virus, in the data set with Hepatitis C virus and in the data set with dengue virus type 2 were over 100 µM, 2.8 µM and over 100 µM, respectively. In data set [1], this molecule returned a cytotoxic concentration (CC50) at 48 h of over 100 µM.

The values are drawn from ChEMBL document CHEMBL5113559, “From Oxetane to Thietane: Extending the Antiviral Spectrum of 2'-Spirocyclic Uridines by Substituting Oxygen with Sulfur” (ACS Med Chem Lett, 2022).
